{
  "source": "ChEMBL document CHEMBL3822377",
  "about": "“Locking PDK1 in DFG-out conformation through 2-oxo-indole containing molecules: Another tools to fight glioblastoma” (Eur J Med Chem, 2016)",
  "key": {"[1]": {"biological_target": "CDK7/Cyclin H/MNAT1 (Homo sapiens) (UniProt P51946+P50613+P51948)", "experiment": "Inhibition of His-tagged full-length human recombinant CDK7/Cyclin H/MNAT1 expressed in baculovirus system at 100 nM by adapta assay"}, "[2]": {"biological_target": "Inhibitor of nuclear factor kappa-B kinase subunit alpha (Homo sapiens) (UniProt O15111)", "experiment": "Inhibition of His-tagged full-length human IKKalpha expressed in baculovirus system at 100 nM by adapta assay"}, "[3]": {"biological_target": "Tyrosine-protein kinase ABL1 (Homo sapiens) (UniProt P00519)", "experiment": "Inhibition of His-tagged full-length human ABL1 expressed in baculovirus system at 100 nM by Z-lyte assay"}, "[4]": {"biological_target": "RAC-alpha serine/threonine-protein kinase (Homo sapiens) (UniProt P31749)", "experiment": "Inhibition of His-tagged full-length human AKT1 expressed in baculovirus system at 100 nM by Z-lyte assay"}, "[5]": {"biological_target": "RAC-beta serine/threonine-protein kinase (Homo sapiens) (UniProt P31751)", "experiment": "Inhibition of His-tagged full-length human AKT2 expressed in baculovirus system at 100 nM by Z-lyte assay"}, "[6]": {"biological_target": "RAC-gamma serine/threonine-protein kinase (Homo sapiens) (UniProt Q9Y243)", "sequence (Q9Y243 whole entry)": "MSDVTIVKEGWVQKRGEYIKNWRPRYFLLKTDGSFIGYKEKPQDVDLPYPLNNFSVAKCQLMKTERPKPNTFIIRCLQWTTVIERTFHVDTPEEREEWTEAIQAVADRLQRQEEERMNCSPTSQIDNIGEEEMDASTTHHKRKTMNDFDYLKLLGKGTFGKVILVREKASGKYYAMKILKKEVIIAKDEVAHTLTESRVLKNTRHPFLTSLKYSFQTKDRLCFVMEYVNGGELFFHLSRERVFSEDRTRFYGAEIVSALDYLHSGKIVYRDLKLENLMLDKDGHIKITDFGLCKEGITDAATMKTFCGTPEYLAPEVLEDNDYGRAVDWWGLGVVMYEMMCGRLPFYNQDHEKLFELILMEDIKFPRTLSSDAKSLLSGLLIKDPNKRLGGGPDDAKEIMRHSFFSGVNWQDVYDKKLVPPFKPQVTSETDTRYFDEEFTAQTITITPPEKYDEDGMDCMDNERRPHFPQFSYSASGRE", "experiment": "Inhibition of His-tagged full-length human AKT3 expressed in baculovirus system at 100 nM by Z-lyte assay"}, "[7]": {"biological_target": "Serine/threonine-protein kinase Chk1 (Homo sapiens) (UniProt O14757)", "experiment": "Inhibition of His-tagged full-length human CHEK1 expressed in baculovirus system at 100 nM by Z-lyte assay"}, "[8]": {"biological_target": "Casein kinase I isoform alpha (Homo sapiens) (UniProt P48729)", "experiment": "Inhibition of GST-tagged human CSNK1A1 expressed in baculovirus system at 100 nM by Z-lyte assay"}, "[9]": {"biological_target": "G protein-coupled receptor kinase 5 (Homo sapiens) (UniProt P34947)", "sequence (P34947 whole entry, looked up)": "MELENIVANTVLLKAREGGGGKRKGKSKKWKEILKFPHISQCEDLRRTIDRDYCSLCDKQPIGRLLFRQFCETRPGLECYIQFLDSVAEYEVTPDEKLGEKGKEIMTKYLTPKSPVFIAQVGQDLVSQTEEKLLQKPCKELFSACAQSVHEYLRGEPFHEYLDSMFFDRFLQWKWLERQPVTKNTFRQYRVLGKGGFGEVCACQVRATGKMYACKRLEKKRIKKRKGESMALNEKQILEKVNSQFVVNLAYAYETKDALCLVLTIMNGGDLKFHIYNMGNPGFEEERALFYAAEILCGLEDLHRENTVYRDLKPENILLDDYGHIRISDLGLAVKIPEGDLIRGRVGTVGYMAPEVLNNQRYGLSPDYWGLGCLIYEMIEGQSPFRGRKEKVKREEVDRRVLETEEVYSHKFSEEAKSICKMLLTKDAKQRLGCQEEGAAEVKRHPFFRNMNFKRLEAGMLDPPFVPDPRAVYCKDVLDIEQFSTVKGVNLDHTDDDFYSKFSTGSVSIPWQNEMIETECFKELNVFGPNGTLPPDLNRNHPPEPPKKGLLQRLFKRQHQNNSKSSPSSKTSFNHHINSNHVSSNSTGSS", "experiment": "Inhibition of GST-tagged full-length human recombinant GRK5 expressed in baculovirus system at 100 nM by Z-lyte assay"}, "[10]": {"biological_target": "Interleukin-1 receptor-associated kinase 4 (Homo sapiens) (UniProt Q9NWZ3)", "experiment": "Inhibition of His-tagged full-length human IRAK4 expressed in baculovirus system at 100 nM by Z-lyte assay"}, "[11]": {"biological_target": "Tyrosine-protein kinase JAK1 (Homo sapiens) (UniProt P23458)", "experiment": "Inhibition of cytosolic GST-tagged full-length recombinant human JAK1 expressed in baculovirus system at 100 nM by Z-lyte assay"}, "[12]": {"biological_target": "Dual specificity mitogen-activated protein kinase kinase 2 (Homo sapiens) (UniProt P36507)", "experiment": "Inhibition of His-tagged full-length recombinant human MAP2K2 expressed in baculovirus system at 100 nM by Z-lyte assay"}, "[13]": {"biological_target": "Mitogen-activated protein kinase 1 (Homo sapiens) (UniProt P28482)", "sequence (P28482 whole entry)": "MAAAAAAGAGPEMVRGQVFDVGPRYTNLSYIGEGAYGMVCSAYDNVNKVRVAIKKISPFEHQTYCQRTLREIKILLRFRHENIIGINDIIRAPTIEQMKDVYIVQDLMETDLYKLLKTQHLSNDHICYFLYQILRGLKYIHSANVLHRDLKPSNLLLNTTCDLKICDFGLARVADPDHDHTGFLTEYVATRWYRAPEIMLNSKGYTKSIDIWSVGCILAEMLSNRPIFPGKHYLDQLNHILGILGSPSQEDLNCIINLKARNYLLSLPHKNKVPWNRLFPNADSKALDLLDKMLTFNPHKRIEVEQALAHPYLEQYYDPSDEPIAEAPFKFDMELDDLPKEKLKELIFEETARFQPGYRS", "experiment": "Inhibition of GST-tagged full-length human MAPK1 expressed in Escherichia coli at 100 nM by Z-lyte assay"}, "[14]": {"biological_target": "MAP kinase-activated protein kinase 2 (Homo sapiens) (UniProt P49137)", "experiment": "Inhibition of His-tagged full-length recombinant human MAPKAPK2 expressed in Escherichia coli at 100 nM by Z-lyte assay"}, "[15]": {"biological_target": "Protein kinase C alpha type (Homo sapiens) (UniProt P17252)", "experiment": "Inhibition of His-tagged full-length human PRKACA expressed in Escherichia coli system at 100 nM by Z-lyte assay"}, "[16]": {"biological_target": "Protein kinase C alpha type (Homo sapiens) (UniProt P17252)", "experiment": "Inhibition of full-length human PRKCA expressed in baculovirus system at 100 nM by Z-lyte assay"}, "[17]": {"biological_target": "Protein kinase C delta type (Homo sapiens) (UniProt Q05655)", "experiment": "Inhibition of full-length recombinant human PRKCD expressed in baculovirus system at 100 nM by Z-lyte assay"}, "[18]": {"biological_target": "Rho-associated protein kinase 1 (Homo sapiens) (UniProt Q13464)", "sequence (Q13464 2-1354 limits assumed)": "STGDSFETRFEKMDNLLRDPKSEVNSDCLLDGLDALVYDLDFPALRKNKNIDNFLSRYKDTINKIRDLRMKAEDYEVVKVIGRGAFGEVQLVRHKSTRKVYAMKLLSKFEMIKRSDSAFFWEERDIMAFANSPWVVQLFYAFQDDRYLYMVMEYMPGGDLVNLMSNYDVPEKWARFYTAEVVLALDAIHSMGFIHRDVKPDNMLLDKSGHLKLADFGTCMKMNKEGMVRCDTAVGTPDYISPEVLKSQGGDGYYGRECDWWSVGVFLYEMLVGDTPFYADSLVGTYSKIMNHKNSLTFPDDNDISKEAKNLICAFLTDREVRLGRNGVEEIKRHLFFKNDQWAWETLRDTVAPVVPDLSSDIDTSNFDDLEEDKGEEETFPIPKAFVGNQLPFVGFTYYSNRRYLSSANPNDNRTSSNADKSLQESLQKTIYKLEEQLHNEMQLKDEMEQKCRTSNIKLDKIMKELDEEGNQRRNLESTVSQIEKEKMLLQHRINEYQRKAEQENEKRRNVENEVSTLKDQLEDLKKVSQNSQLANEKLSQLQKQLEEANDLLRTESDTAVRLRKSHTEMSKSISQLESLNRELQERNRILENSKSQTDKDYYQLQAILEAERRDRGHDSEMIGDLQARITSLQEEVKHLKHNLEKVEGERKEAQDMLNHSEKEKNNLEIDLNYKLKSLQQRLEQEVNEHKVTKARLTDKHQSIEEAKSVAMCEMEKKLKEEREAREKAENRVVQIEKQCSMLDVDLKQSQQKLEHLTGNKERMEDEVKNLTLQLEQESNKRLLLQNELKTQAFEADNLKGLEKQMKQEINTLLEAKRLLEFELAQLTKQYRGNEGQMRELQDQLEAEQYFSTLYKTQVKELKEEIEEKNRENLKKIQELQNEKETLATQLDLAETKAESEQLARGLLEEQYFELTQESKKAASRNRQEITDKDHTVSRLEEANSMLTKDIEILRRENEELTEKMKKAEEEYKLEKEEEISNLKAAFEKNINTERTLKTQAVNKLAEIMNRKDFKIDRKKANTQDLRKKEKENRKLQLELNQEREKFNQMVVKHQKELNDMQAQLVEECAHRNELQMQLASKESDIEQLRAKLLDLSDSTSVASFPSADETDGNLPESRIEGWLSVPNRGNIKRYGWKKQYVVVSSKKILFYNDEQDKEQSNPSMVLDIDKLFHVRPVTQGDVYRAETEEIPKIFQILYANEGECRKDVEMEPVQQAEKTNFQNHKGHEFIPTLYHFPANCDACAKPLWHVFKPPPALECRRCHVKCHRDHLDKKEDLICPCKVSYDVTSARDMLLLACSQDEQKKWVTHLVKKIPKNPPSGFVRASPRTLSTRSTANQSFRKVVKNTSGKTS", "experiment": "Inhibition of catalytic GST-tagged human ROCK1 expressed in baculovirus system at 100 nM by Z-lyte assay"}, "[19]": {"biological_target": "Rho-associated protein kinase 2 (Homo sapiens) (UniProt O75116)", "sequence (O75116 whole entry, looked up)": "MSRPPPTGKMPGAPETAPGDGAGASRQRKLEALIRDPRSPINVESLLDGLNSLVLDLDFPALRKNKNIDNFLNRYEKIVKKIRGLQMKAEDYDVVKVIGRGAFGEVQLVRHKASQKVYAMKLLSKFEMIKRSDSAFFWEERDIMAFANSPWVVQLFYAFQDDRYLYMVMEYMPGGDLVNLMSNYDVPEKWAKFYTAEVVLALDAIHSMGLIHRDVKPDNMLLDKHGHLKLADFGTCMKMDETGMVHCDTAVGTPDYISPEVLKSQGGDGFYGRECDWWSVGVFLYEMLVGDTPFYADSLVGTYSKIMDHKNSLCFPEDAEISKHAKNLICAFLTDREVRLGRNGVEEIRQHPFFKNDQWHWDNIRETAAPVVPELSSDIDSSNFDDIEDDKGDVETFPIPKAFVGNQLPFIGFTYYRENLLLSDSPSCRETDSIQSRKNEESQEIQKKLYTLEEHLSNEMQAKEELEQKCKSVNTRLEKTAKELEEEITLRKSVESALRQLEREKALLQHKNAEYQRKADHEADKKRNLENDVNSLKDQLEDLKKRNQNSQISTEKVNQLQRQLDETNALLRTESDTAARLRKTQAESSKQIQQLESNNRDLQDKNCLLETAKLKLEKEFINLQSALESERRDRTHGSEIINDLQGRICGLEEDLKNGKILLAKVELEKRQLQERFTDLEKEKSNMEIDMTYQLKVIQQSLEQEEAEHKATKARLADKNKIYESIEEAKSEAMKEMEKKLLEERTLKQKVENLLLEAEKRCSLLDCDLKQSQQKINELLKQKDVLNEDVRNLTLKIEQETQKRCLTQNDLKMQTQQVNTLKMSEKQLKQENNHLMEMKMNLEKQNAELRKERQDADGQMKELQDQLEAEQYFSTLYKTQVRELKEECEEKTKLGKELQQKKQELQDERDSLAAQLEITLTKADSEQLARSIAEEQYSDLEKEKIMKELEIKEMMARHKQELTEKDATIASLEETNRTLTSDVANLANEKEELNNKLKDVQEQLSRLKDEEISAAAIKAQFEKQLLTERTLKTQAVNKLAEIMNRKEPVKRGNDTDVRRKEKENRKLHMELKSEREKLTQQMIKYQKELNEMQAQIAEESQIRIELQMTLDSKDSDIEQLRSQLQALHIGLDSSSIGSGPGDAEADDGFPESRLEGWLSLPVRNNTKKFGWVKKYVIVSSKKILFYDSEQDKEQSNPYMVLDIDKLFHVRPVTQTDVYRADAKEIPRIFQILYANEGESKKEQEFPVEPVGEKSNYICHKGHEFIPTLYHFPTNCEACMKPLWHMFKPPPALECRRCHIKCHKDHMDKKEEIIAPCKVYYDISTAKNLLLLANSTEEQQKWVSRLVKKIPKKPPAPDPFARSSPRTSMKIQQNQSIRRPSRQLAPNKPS", "experiment": "Inhibition of catalytic recombinant GST-tagged human ROCK2 expressed in baculovirus system at 100 nM by Z-lyte assay"}, "[20]": {"biological_target": "Ribosomal protein S6 kinase alpha-1 (Homo sapiens) (UniProt Q15418)", "experiment": "Inhibition of His-tagged full-length recombinant human RSK1 expressed in baculovirus system at 100 nM by Z-lyte assay"}, "[21]": {"biological_target": "Ribosomal protein S6 kinase beta-1 (Homo sapiens) (UniProt P23443)", "experiment": "Inhibition of catalytic GST-tagged human RPS6KB1 expressed in baculovirus system at 100 nM by Z-lyte assay"}, "U-87MG ATCC": {"test_system": "U-87MG ATCC", "experiment": "Inhibition of AKT phosphorylation at Thr308 residue in human U87MG cells at 10 uM by ELISA relative to control", "format": "cell-based"}, "[22]": {"biological_target": "T1, 3-phosphoinositide-dependent protein kinase 1 (Homo sapiens) (UniProt O15530)", "T1 sequence (whole entry)": "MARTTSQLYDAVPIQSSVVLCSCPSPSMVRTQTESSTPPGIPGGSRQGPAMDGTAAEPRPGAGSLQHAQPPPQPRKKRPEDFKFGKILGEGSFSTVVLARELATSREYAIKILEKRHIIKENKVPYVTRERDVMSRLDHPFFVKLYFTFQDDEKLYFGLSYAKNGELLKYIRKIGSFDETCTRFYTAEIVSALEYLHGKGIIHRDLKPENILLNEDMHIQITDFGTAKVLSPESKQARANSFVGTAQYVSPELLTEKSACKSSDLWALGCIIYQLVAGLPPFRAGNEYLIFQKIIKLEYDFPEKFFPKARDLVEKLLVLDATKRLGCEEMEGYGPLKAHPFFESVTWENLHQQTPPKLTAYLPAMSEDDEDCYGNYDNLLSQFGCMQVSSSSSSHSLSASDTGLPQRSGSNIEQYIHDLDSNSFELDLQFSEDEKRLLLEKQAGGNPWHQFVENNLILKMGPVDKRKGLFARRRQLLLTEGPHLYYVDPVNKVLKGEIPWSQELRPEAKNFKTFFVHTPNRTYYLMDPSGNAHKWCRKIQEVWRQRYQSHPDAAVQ", "experiment": "Inhibition of PDK1-mediated cell migration in human U87MG cells at 10 uM […] measured at 6 to 24 hrs by scratch wound assay", "format": "cell-based", "details": "U-87MG ATCC"}, "[23]": {"experiment": "Induction of apoptosis in human GSC cells assessed as late apoptotic cells by measuring phosphatidylserine externalisation at 10 uM after 7 days in presence of 7-amino-actinomysin by AnnexinV/FITC staining-based flow cytometry (reference value: 4.14%)", "format": "functional"}, "[24]": {"experiment": "Induction of apoptosis in human GSC cells assessed as dead cells by measuring phosphatidylserine externalisation at 10 uM after 7 days in presence of 7-amino-actinomysin by AnnexinV/FITC staining-based flow cytometry (reference value: 1.68%)", "format": "functional"}, "[25]": {"biological_target": "T1, 3-phosphoinositide-dependent protein kinase 1 (Homo sapiens)", "experiment": "Inhibition of PDK1 in human GSC cells assessed as reduction in AKT phosphorylation at Thr308 residue at 10 uM by ELISA relative to control", "format": "cell-based", "details": "TDE = time-dependent effect"}, "[26]": {"biological_target": "T1, 3-phosphoinositide-dependent protein kinase 1 (Homo sapiens)", "experiment": "Inhibition of PDK1 in human U87MG cells assessed as reduction in AKT phosphorylation at Thr308 residue at 10 uM measured at 120 mins by ELISA relative to control", "format": "cell-based", "details": "U-87MG ATCC"}},
  "note": "Activity calls are given as the source filed them. The calls are words filed in the database; no cut-off is given here.",
  "data": [
    {"smiles": "O=C(CNC(=O)c1cccn(Cc2ccc(F)c(F)c2)c1=O)Nc1ccc2c(c1)/C(=C/c1cnc[nH]1)C(=O)N2", "values": [
      {"measurement": "inhibition", "setting": "[1]", "result": 1, "unit": "%"},
      {"measurement": "inhibition", "setting": "[2]", "result": 3, "unit": "%"},
      {"measurement": "inhibition", "setting": "[3]", "result": 14, "unit": "%"},
      {"measurement": "inhibition", "setting": "[4]", "result": -8, "unit": "%"},
      {"measurement": "inhibition", "setting": "[5]", "result": -4, "unit": "%"},
      {"measurement": "inhibition", "setting": "[6]", "result": 2, "unit": "%"},
      {"measurement": "inhibition", "setting": "[7]", "result": 6, "unit": "%"},
      {"measurement": "inhibition", "setting": "[8]", "result": -2, "unit": "%"},
      {"measurement": "inhibition", "setting": "[9]", "result": -4, "unit": "%"},
      {"measurement": "inhibition", "setting": "[10]", "result": -6, "unit": "%"},
      {"measurement": "inhibition", "setting": "[11]", "result": -8, "unit": "%"},
      {"measurement": "inhibition", "setting": "[12]", "result": 9, "unit": "%"},
      {"measurement": "inhibition", "setting": "[13]", "result": 6, "unit": "%"},
      {"measurement": "inhibition", "setting": "[14]", "result": 0, "unit": "%"},
      {"measurement": "inhibition", "setting": "[15]", "result": -5, "unit": "%"},
      {"measurement": "inhibition", "setting": "[16]", "result": 0, "unit": "%"},
      {"measurement": "inhibition", "setting": "[17]", "result": -7, "unit": "%"},
      {"measurement": "inhibition", "setting": "[18]", "result": -7, "unit": "%"},
      {"measurement": "inhibition", "setting": "[19]", "result": 2, "unit": "%"},
      {"measurement": "inhibition", "setting": "[20]", "result": 2, "unit": "%"},
      {"measurement": "inhibition", "setting": "[21]", "result": -6, "unit": "%"},
      {"measurement": "inhibition", "setting": "U-87MG ATCC", "result": "Dose-dependent effect"},
      {"measurement": "inhibition", "setting": "[22]", "result": "Active"},
      {"measurement": "Activity", "setting": "[23]", "result": 22.7, "unit": "%"},
      {"measurement": "Activity", "setting": "[24]", "result": 2.35, "unit": "%"},
      {"measurement": "inhibition", "setting": "[25]", "result": "tde"},
      {"measurement": "inhibition", "setting": "[26]", "result": 19.6, "unit": "%"}
    ]}
  ]
}
